The source of these data is patent publication US20090023738A1, “DIAMINOPYRIMIDINES AS MODULATORS OF THE EP2 RECEPTOR” (priority 2007, published 2009).

The target in assay [1] is T1, EP2 subtype of the human PGE2 receptor (Homo sapiens, UniProt P43116).
T1 construct: host or cells: cells in a cell culture plate
Description: cAMP antagonism assay (EP2 receptor signal, HTRF cAMP detection). The format is cell-based. Conditions: in the presence of the agonist PGE2. The text has this: 1. Detection of the Antagonism of the Human Prostaglandin E2 (Subtype EP2 Receptor Signal
(§1) The binding of PGE2 to the EP2 subtype of the human PGE2 receptor induces activation of membrane-associated adenylate cyclases and leads to the formation of cAMP. In the presence of the phosphodiesterase inhibitor IBMX, cAMP which has accumulated due to this stimulation and been released by cell lysis is employed in a competitive detection method. In this assay, the cAMP in the lysate competes with cAMP-XL665 for binding of an Eu cryptate-labelled anti-cAMP antibody.
(§2) The two signals are measured in a suitable measuring instrument with a time lag, i.e. after the background fluorescence has declined.
1.2.1 Antagonism Assay (Data for Each Well of a 384-Well plate): […]
After preincubation at room temperature (RT) for 30 minutes, 5 μl of a 4×PGE2 solution (11 nM) are added, and incubation is carried out in the presence of the agonist at RT for a further 60 min (volume: 20 μl) before the reaction is then stopped by adding 5 μl of lysis buffer and incubated at RT for a further 20 min (volume: ˜25 μl). The cell lysate is then transferred into a measuring plate and measured in accordance with the manufacturer's information (cyclic AMP kit Cisbio International # 62AMPPEC).
On the technique in general: In TR-FRET formats the signal depends on donor and acceptor labels being close together.

Assay [2] has as its target T1, EP2 subtype of the human PGE2 receptor. The assay can be described thus: cellular cAMP agonism assay. The format is cell-based. Conditions: without PGE2. The method, then:
as §1, §2
1.2.2 Agonism Assay (Data for Each Well of a 384-Well Plate): […]
After incubation at room temperature (RT; volume: 15 μl) for 60 minutes, the reaction is then stopped by adding 5 μl of lysis buffer and incubated at RT for a further 20 min (volume: 20 μl). The cell lysate is then transferred into a measuring plate and measured in accordance with the manufacturer's information (cyclic AMP kit Cisbio International # 62AMPPEC).

T1 sequence (P43116 whole entry): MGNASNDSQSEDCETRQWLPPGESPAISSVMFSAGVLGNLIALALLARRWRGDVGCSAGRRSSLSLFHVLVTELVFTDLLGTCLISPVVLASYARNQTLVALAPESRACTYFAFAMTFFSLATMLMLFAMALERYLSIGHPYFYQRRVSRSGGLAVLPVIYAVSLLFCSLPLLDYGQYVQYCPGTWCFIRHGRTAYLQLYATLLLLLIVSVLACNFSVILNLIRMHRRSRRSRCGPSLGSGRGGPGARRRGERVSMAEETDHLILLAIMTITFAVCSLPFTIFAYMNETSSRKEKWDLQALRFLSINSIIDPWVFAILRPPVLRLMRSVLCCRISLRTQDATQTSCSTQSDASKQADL

Consider `Cc1[nH]c2c(F)ccc(C)c2c1CCNc1cc(NCc2cccnc2)ncn1` [Example 6, N-[2-(7-Fluoro-2,4-dimethyl-1H-indol-3-yl)ethyl]-N′-pyridin-3-ylmethylpyrimidine-4,6-diamine], for which the IC50 (in general, the concentration at which inhibition is half-maximal) in assay [1] stood at 1600 nM. Also, in assay [2], the “effect in the cellular agonism test” value is “no inhibition”.
As to `Cc1[nH]c2c(F)ccc(C)c2c1CCNc1cc(NCc2ccccc2-c2ccccc2)ncn1` [Example 17, N-Biphenyl-2-ylmethyl-N′-[2-(7-fluoro-2,4-dimethyl-1H-indol-3-yl)ethyl]-pyrimidine-4,6-diamine], the IC50 in assay [1] was found to be 1400 nM.
